PMC8155809 (The Journal of General Physiology, 2021)

Molecular target: T1, Human TREK-2 (KCNK10) crystal construct (Homo sapiens, UniProt P57789)
T1 construct: “crystal construct” protein (Gly67 to Glu340); made in house
T1 sequence (P57789 67-340 isoform P57789-4): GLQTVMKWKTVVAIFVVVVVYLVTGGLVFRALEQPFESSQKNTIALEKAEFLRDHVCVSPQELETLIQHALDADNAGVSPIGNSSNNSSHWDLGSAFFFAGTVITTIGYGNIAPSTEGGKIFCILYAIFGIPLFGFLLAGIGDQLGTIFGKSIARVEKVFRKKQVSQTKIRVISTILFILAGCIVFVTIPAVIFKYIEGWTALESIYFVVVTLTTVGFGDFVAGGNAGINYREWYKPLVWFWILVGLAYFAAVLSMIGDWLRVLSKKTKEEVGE
Experiment: Single-channel recordings of purified TREK-2 reconstituted in lipid bilayers
Assay type: biochemical
Details: for Po (single-channel open probability) / block of channel (Po): 10 µM NFx; for Po (single-channel open probability): +60 mV; for AC1, area of closed state 1 / AC2, area of closed state 2 / AC3, area of closed state 3 / AC4, area of closed state 4 / AC5, area of closed state 5 / τC1, mean lifetime of closed state 1 / τC2, mean lifetime of closed state 2 / τC3, mean lifetime of closed state 3 / τC4, mean lifetime of closed state 4 / τC5, mean lifetime of closed state 5 / τO, mean open time: 100 μM NFx
Procedure: Human TREK-2 (KCNK10) “crystal construct” protein (Gly67 to Glu340) was expressed and purified as previously described ([Dong et al., 2015]), with the exception that it was purified in 1% wt/vol n-octyl-β-D-glucoside, 0.1% wt/vol cholesteryl hemisuccinate. 1,2-Diphytanoyl-sn-glycero-3-phosphocholine was dissolved in chloroform to a concentration of 10 mM and stored at −20°C. The GUVs were then made by electroformation in a 1 M sorbitol solution using Vesicle Prep Pro (Nanion Technologies). Purified TREK-2 was then mixed with GUVs to a final concentration of ∼1–5 µg/ml and incubated overnight at 4°C with 0.5 mg/ml Bio-Beads (Bio-Rad) before use.
All electrophysiological recordings were performed with the Nanion Port-a-Patch system connected to an Axopatch 200B amplifier via a Digidata 1440A digitizer (Molecular Devices). Data were filtered at 5 kHz and recorded at a 200-kHz sampling rate with program Clampex (Molecular Devices). Experiments were performed in symmetrical 200 mM KCl and 10 mM HEPES (pH 6.0 with KOH) solutions. Single-channel currents were idealized using 50% threshold criterion with program Clampfit (Molecular Devices) at an imposed resolution of 50 µs. Only one open and one closed level were considered in the analysis; all subconductance states were neglected (these typically comprised less than 1% of open- and closed-level events of channels in the “high PO” mode). Analysis of amplitude and dwell-time distributions was performed in Origin (OriginLab Corporation) and an in-house software written in Mathematica (Wolfram Technologies). Empirical correction for open times due to missed events was performed as described previously ([Davies et al., 1992]). Critical time for burst analysis was determined using Colquhoun and Sakmann criterion ([Colquhoun and Sakmann, 1985]).

Po (single-channel open probability) (channel with high Po (Fig. S5B)): 0.70
Po (single-channel open probability) (channel with low Po (Fig. S5A)): 0.048
block of channel (Po) (high-Po mode): 20 ± 0.02%
block of channel (Po) (standard mode): 23 ± 0.05%
AC1, area of closed state 1 (V 20 mV, high-Po mode): 74%
AC2, area of closed state 2 (V 20 mV, high-Po mode): 15.5%
AC3, area of closed state 3 (V 20 mV, high-Po mode): 4.4%
AC4, area of closed state 4 (V 20 mV, high-Po mode): 4.9%
AC5, area of closed state 5 (V 20 mV, high-Po mode): 1.5%
τC1, mean lifetime of closed state 1 (V 20 mV, high-Po mode): 0.041 ms
τC2, mean lifetime of closed state 2 (V 20 mV, high-Po mode): 0.30 ms
τC3, mean lifetime of closed state 3 (V 20 mV, high-Po mode): 1.3 ms
τC4, mean lifetime of closed state 4 (V 20 mV, high-Po mode): 23 ms
τC5, mean lifetime of closed state 5 (V 20 mV, high-Po mode): 90 ms
τO, mean open time (V 20 mV, high-Po mode): 0.53 ms
AC1, area of closed state 1 (V 40 mV, high-Po mode): 75%
AC2, area of closed state 2 (V 40 mV, high-Po mode): 13.7%
AC3, area of closed state 3 (V 40 mV, high-Po mode): 3.3%
AC4, area of closed state 4 (V 40 mV, high-Po mode): 6.2%
AC5, area of closed state 5 (V 40 mV, high-Po mode): 2.0%
τC1, mean lifetime of closed state 1 (V 40 mV, high-Po mode): 0.083 ms
τC2, mean lifetime of closed state 2 (V 40 mV, high-Po mode): 0.36 ms
τC3, mean lifetime of closed state 3 (V 40 mV, high-Po mode): 4.8 ms
τC4, mean lifetime of closed state 4 (V 40 mV, high-Po mode): 39 ms
τC5, mean lifetime of closed state 5 (V 40 mV, high-Po mode): 160 ms
τO, mean open time (V 40 mV, high-Po mode): 0.69 ms
AC1, area of closed state 1 (V 60 mV, high-Po mode): 75%
AC2, area of closed state 2 (V 60 mV, high-Po mode): 13.9%
AC3, area of closed state 3 (V 60 mV, high-Po mode): 3.5%
AC4, area of closed state 4 (V 60 mV, high-Po mode): 5.7%
AC5, area of closed state 5 (V 60 mV, high-Po mode): 1.6%
τC1, mean lifetime of closed state 1 (V 60 mV, high-Po mode): 0.059 ms
τC2, mean lifetime of closed state 2 (V 60 mV, high-Po mode): 0.31 ms
τC3, mean lifetime of closed state 3 (V 60 mV, high-Po mode): 2.1 ms
τC4, mean lifetime of closed state 4 (V 60 mV, high-Po mode): 41 ms
τC5, mean lifetime of closed state 5 (V 60 mV, high-Po mode): 160 ms
τO, mean open time (V 60 mV, high-Po mode): 0.60 ms
AC1, area of closed state 1 (V 80 mV, high-Po mode): 76%
AC2, area of closed state 2 (V 80 mV, high-Po mode): 11.9%
AC3, area of closed state 3 (V 80 mV, high-Po mode): 1.9%
AC4, area of closed state 4 (V 80 mV, high-Po mode): 7.7%
AC5, area of closed state 5 (V 80 mV, high-Po mode): 2.6%
τC1, mean lifetime of closed state 1 (V 80 mV, high-Po mode): 0.055 ms
τC2, mean lifetime of closed state 2 (V 80 mV, high-Po mode): 0.32 ms
τC3, mean lifetime of closed state 3 (V 80 mV, high-Po mode): 2.9 ms
τC4, mean lifetime of closed state 4 (V 80 mV, high-Po mode): 78 ms
τC5, mean lifetime of closed state 5 (V 80 mV, high-Po mode): 490 ms
τO, mean open time (V 80 mV, high-Po mode): 0.49 ms
AC1, area of closed state 1 (V 100 mV, high-Po mode): 77%
AC2, area of closed state 2 (V 100 mV, high-Po mode): 9.2%
AC3, area of closed state 3 (V 100 mV, high-Po mode): 2.5%
AC4, area of closed state 4 (V 100 mV, high-Po mode): 7.5%
AC5, area of closed state 5 (V 100 mV, high-Po mode): 4.1%
τC1, mean lifetime of closed state 1 (V 100 mV, high-Po mode): 0.064 ms
τC2, mean lifetime of closed state 2 (V 100 mV, high-Po mode): 0.30 ms
τC3, mean lifetime of closed state 3 (V 100 mV, high-Po mode): 1.9 ms
τC4, mean lifetime of closed state 4 (V 100 mV, high-Po mode): 72 ms
τC5, mean lifetime of closed state 5 (V 100 mV, high-Po mode): 220 ms
τO, mean open time (V 100 mV, high-Po mode): 0.44 ms
AC1, area of closed state 1 (V −20 mV, high-Po mode): 81%
AC2, area of closed state 2 (V −20 mV, high-Po mode): 10.7%
AC3, area of closed state 3 (V −20 mV, high-Po mode): 2.5%
AC4, area of closed state 4 (V −20 mV, high-Po mode): 5.0%
AC5, area of closed state 5 (V −20 mV, high-Po mode): 0.6%
τC1, mean lifetime of closed state 1 (V −20 mV, high-Po mode): 0.061 ms
τC2, mean lifetime of closed state 2 (V −20 mV, high-Po mode): 0.35 ms
τC3, mean lifetime of closed state 3 (V −20 mV, high-Po mode): 2.5 ms
τC4, mean lifetime of closed state 4 (V −20 mV, high-Po mode): 45 ms
τC5, mean lifetime of closed state 5 (V −20 mV, high-Po mode): 260 ms
τO, mean open time (V −20 mV, high-Po mode): 0.54 ms
AC1, area of closed state 1 (V −40 mV, high-Po mode): 85%
AC2, area of closed state 2 (V −40 mV, high-Po mode): 9.3%
AC3, area of closed state 3 (V −40 mV, high-Po mode): 1.7%
AC4, area of closed state 4 (V −40 mV, high-Po mode): 4.2%
AC5, area of closed state 5 (V −40 mV, high-Po mode): 0.2%
τC1, mean lifetime of closed state 1 (V −40 mV, high-Po mode): 0.069 ms
τC2, mean lifetime of closed state 2 (V −40 mV, high-Po mode): 0.35 ms
τC3, mean lifetime of closed state 3 (V −40 mV, high-Po mode): 2.5 ms
τC4, mean lifetime of closed state 4 (V −40 mV, high-Po mode): 52 ms
τC5, mean lifetime of closed state 5 (V −40 mV, high-Po mode): 520 ms
τO, mean open time (V −40 mV, high-Po mode): 0.51 ms
AC1, area of closed state 1 (V −60 mV, high-Po mode): 85%
AC2, area of closed state 2 (V −60 mV, high-Po mode): 9.5%
AC3, area of closed state 3 (V −60 mV, high-Po mode): 1.2%
AC4, area of closed state 4 (V −60 mV, high-Po mode): 3.4%
AC5, area of closed state 5 (V −60 mV, high-Po mode): 0.6%
τC1, mean lifetime of closed state 1 (V −60 mV, high-Po mode): 0.082 ms
τC2, mean lifetime of closed state 2 (V −60 mV, high-Po mode): 0.30 ms
τC3, mean lifetime of closed state 3 (V −60 mV, high-Po mode): 1.6 ms
τC4, mean lifetime of closed state 4 (V −60 mV, high-Po mode): 44 ms
τC5, mean lifetime of closed state 5 (V −60 mV, high-Po mode): 230 ms
τO, mean open time (V −60 mV, high-Po mode): 0.35 ms
AC1, area of closed state 1 (V −80 mV, high-Po mode): 89%
AC2, area of closed state 2 (V −80 mV, high-Po mode): 6.0%
AC3, area of closed state 3 (V −80 mV, high-Po mode): 1.0%
AC4, area of closed state 4 (V −80 mV, high-Po mode): 2.8%
AC5, area of closed state 5 (V −80 mV, high-Po mode): 0.8%
τC1, mean lifetime of closed state 1 (V −80 mV, high-Po mode): 0.110 ms
τC2, mean lifetime of closed state 2 (V −80 mV, high-Po mode): 0.37 ms
τC3, mean lifetime of closed state 3 (V −80 mV, high-Po mode): 9.5 ms
τC4, mean lifetime of closed state 4 (V −80 mV, high-Po mode): 58 ms
τC5, mean lifetime of closed state 5 (V −80 mV, high-Po mode): 140 ms
τO, mean open time (V −80 mV, high-Po mode): 0.27 ms
AC1, area of closed state 1 (V −100 mV, high-Po mode): 88%
AC2, area of closed state 2 (V −100 mV, high-Po mode): 8.0%
AC3, area of closed state 3 (V −100 mV, high-Po mode): 0.6%
AC4, area of closed state 4 (V −100 mV, high-Po mode): 2.2%
AC5, area of closed state 5 (V −100 mV, high-Po mode): 1.0%
τC1, mean lifetime of closed state 1 (V −100 mV, high-Po mode): 0.110 ms
τC2, mean lifetime of closed state 2 (V −100 mV, high-Po mode): 0.37 ms
τC3, mean lifetime of closed state 3 (V −100 mV, high-Po mode): 3.0 ms
τC4, mean lifetime of closed state 4 (V −100 mV, high-Po mode): 40 ms
τC5, mean lifetime of closed state 5 (V −100 mV, high-Po mode): 140 ms
τO, mean open time (V −100 mV, high-Po mode): 0.20 ms
Compound: NCCC(Oc1ccc(C(F)(F)F)cc1)c1ccccc1 (stereo not drawn) [NFx, norfluoxetine]
